Reference: patent US10844064B2, “sGC stimulators” (Cyclerion Therapeutics, Inc., priority 2014, dated 2020)

Experiments:
[1] = target: T1, soluble guanylate cyclase (sGC) (Homo sapiens, UniProt Q02108+Q02153); assay: sGC-HEK-cGMP assay with LC/MS detection (Example 2A); assay type: cell-based; details: HEK293 cells, 10 μM DETA-NONOate, 20 min; concentration eliciting 50% of high control response (30 μM Compound Y); read-out: Absolute EC50 (nM) - binned
T1 construct: endogenously expressing soluble guanylate cyclase (sGC); endogenous in cells; host or cells: HEK293
T1 sequence (Q02108 1-690): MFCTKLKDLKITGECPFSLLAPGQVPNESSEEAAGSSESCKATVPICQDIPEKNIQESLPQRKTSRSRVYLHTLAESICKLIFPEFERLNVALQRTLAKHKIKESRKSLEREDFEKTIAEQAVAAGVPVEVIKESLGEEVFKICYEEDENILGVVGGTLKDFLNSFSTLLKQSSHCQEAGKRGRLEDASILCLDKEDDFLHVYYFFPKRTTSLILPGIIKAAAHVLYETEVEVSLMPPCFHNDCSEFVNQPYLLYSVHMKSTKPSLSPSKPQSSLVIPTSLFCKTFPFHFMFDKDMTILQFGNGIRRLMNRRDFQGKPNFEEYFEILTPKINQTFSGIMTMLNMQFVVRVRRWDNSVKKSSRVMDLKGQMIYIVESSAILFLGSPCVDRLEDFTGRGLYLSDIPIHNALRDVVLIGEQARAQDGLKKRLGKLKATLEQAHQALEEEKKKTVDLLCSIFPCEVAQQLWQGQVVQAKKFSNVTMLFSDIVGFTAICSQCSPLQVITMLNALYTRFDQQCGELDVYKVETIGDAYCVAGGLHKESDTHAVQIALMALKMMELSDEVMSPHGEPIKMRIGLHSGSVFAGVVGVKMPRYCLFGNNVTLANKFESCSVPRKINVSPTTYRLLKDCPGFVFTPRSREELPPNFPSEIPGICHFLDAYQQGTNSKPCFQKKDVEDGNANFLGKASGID
T1 sequence (Q02153 1-619): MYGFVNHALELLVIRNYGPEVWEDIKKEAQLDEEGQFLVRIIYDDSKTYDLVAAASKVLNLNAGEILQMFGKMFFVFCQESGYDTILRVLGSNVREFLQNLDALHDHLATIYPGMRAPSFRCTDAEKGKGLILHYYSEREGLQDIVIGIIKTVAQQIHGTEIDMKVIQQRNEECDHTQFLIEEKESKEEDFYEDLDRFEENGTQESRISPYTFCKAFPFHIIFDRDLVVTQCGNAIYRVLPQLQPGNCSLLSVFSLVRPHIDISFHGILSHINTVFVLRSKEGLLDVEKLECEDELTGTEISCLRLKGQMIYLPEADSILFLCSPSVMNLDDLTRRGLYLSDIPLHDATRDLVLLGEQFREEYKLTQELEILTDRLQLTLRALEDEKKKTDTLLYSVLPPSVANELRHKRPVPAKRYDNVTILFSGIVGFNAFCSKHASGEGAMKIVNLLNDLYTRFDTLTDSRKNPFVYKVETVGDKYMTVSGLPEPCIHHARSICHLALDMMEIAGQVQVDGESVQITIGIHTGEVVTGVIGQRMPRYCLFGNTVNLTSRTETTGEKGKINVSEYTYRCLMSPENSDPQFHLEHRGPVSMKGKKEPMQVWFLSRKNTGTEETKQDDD
Procedure: Human embryonic kidney cells (HEK293), endogenously expressing soluble guanylate cyclase (sGC), were used to evaluate the activity of test compounds. Compounds stimulating the sGC enzyme should cause an increase in the intracellular concentration of cGMP. HEK 293 cells were seeded in Dulbecco's Modification of Eagle's Medium supplemented with fetal bovine serum (10% final) and penicillin (100 U/mL)/streptomycin (100 μg/mL) in a 50 μL, volume at a density of 1.5×10^4 cells/well in a poly-D-lysine coated 384 well flat bottom plate. Cells were incubated overnight at 37° C. in a humidified chamber with 5% CO2. Medium was aspirated and cells were washed with 1× Hank's Buffered Saline Salt Solution (50 μL). Cells were then incubated for 15 minutes at 37° C. with 50 μL of a 0.5 mM 3-isobutyl-1-methylxanthine (IBMX) solution. Test article and Diethylenetriamine NONOate (DETA-NONOate) solutions (x μM concentration for test article solution and 10 μM concentration for DETA-NONOate solution; wherein x is one of the following concentrations);
were then added to the assay mixture and the resulting mixture incubated at 37° C. for 20 minutes. After the 20 minute incubation, the assay mixture was aspirated and 10% acetic acid containing 150 ng/mL+3-cGMP (internal standard for LCMS) (50 μL) was added to the cells. The plate was incubated at 4° C. for 30 minutes in the acetic acid solution to stop the reaction and lyse the cells. The plates were then centrifuged at 1,000 g for 3 minutes at 4° C. and the supernatant transferred to a clean reaction plate for LCMS analysis.
cGMP concentrations were determined from each sample using the LCMS conditions below (Table 2) and calculated standard curve. The standard curve was prepared in 10% acetic acid with 150 ng/mL+3cGMP (isotopically labelled cGMP with a weight 3 units higher than wild type) with the following final concentrations of cGMP in ng/mL: 1, 5, 10, 50, 100, 250, 500, 1000, 2000.
(§1) Data were normalized to a high control using the following equation: 100*(Sample—Low Control)/(High Control—Low Control), where the low control is the average of 16 samples treated with 1% DMSO, and the high control is the average of 16 samples treated with 30 μM of Compound Y depicted below. Data were fit using a 4-parameter fit (log(agonist) vs. response variable slope) using GraphPad Prism Software v.5. n=2 for all compounds. […] Compounds failing to elicit a minimum response of 50% are reported as >30 μM. For compounds run in duplicate or n higher than 2, the result herein given is the geometric mean of the several results obtained.

[2] = target: T2, sGC enzyme (Homo sapiens, UniProt Q02108+Q02153); assay: cGMP GloSensor cell-based assay, 384-well format (Example 2B); details: HEK293 GloSensor 40F cGMP cells, 10 μM DETA-NONOate; 50% of high control response (Compound Y); read-out: sGC_HEK_GloSensor EC50/IC50 Abs (Norm) (nM) Binned
T2 construct: host or cells: HEK293 expressing GloSensor 40F cGMP
T2 sequence (Q02108 1-690): T1 sequence (Q02108 1-690)
T2 sequence (Q02153 1-619): T1 sequence (Q02153 1-619)
Procedure: as §1
Human embryonic kidney cells (HEK293) cells expressing GloSensor™ 40F cGMP (Part No: CS182801, Promega) were used to evaluate the activity of test compounds. The luminescent biosensors (engineered luciferase) that were incorporated into these cells detect cGMP formed by the compounds stimulating the sGC enzyme and emit luminescence.
cGMP GloSensor cells were maintained in Dulbecco's Modification of Eagle's Medium (DMEM) supplemented with fetal bovine serum (FBS) (10% final) and hygromycine (200 μg/ml). The day before assay, cells were plated in DMEM with 10% FBS in a 50 μL volume at a density of 1.5×10^4 cells/well in a poly-D-lysine coated 384-well flat white-bottom plate (Corning Cat No 35661). Cells were incubated overnight at 37° C. in a humidified chamber with 5% CO2. The next day, medium was removed and cells were replaced with 40 μl/well of GloSensor™, […] (Promega Cat No E1291). Cells were treated for 90 minutes at 25° C. to allow the substrate to equilibrate in the cells. Test compounds and Diethylenetriamine NONOate (DETA-NONOate) was diluted to […] in serum-free CO2 independent medium and serally diluted at 4× dilutions to create 5× dose curve from which 10 ul was added to the wells (x uM concentration for test compound solution and 10 μM concentration for DETA-NONOate solution; wherein x is one of the following final concentrations).
For the kinetics studies, luminescense was measured right away for 0.2 sec per well with Envision (Perkin Elmer model No). For endpoint SAR screening, data were collected after 55 min incubation at room temperature.
Data analysis was carried out as indicated above in Example 2A.

| Compound | EC50 [1] | EC50 [2] |
| --- | --- | --- |
| OC(Cn1nnc2cnc(-c3cc(-c4ccon4)n(Cc4ccccc4F)n3)nc21)(C(F)(F)F)C(F)(F)F [Compound I-3] | > 1000 nM | – |
| CC1(C)C(=O)Nc2nc(-n3cc(-c4ccon4)c(Cc4ccccc4F)n3)ncc21 [Compound I-81, 2-(3-(2-fluorobenzyl)-4-(isoxazol-3-yl)-1H-pyrazol-1-yl)-5,5-dimethyl-5H-pyrrolo[2,3-d]pyrimidin-6(7H)-one] | – | 100 to 1000 nM |
| COc1cn(-c2nc(N)c3c(n2)NC(=O)C3(C)C)nc1Cc1ccccc1F [Compound I-82, 4-amino-2-(3-(2-fluorobenzyl)-4-methoxy-1H-pyrazol-1-yl)-5,5-dimethyl-5H-pyrrolo[2,3-d]pyrimidin-6(7H)-one] | – | < 100 nM |
| COc1cn(-c2nc(O)c3c(n2)NC(=O)C3(C)C)nc1Cc1ccccc1F [Compound I-83] | – | < 100 nM |
| Cc1cn(-c2nc(N)c3c(n2)NC(=O)C3(C)C)nc1Cc1ccccc1F [Compound I-84, 4-amino-2-(3-(2-fluorobenzyl)-4-methyl-1H-pyrazol-1-yl)-5,5-dimethyl-5H-pyrrolo[2,3-d]pyrimidin-6(7H)-one] | – | < 100 nM |
| Cc1cn(-c2ncc3c(n2)NC(=O)C3(C)C)nc1Cc1ccccc1F [Compound I-85] | – | 100 to 1000 nM |
| Cc1cn(-c2nc(O)c3c(n2)NC(=O)C3(C)C)nc1Cc1ccccc1F [Compound I-86] | – | 100 to 1000 nM |
| Cc1nc(-c2nc(O)c3c(n2)NC(=O)C3(C)C)nn1Cc1ccccc1F [Compound I-88] | – | > 1000 nM |
| Cc1nc(-c2ncc3c(n2)NC(=O)C3(C)C)nn1Cc1ccccc1F [Compound I-89] | – | > 1000 nM |
| COc1ccc(CN2C(=O)C(C)(C)c3nnc(-n4cc(OC)c(Cc5ccccc5F)n4)nc32)cc1 [Compound I-91, 3-(3-(2-fluorobenzyl)-4-methoxy-1H-pyrazol-1-yl)-5-(4-methoxybenzyl)-7,7-dimethyl-5H-pyrrolo[2,3-e][1,2,4]triazin-6(7H)-one] | – | > 30000 nM |
| COc1cc(-c2nc(N)c3c(n2)NC(=O)C3(C)C)nn1Cc1cncnc1 [Compound I-92, 4-amino-2-(5-methoxy-1-(pyrimidin-5-ylmethyl)-1H-pyrazol-3-yl)-5,5-dimethyl-5H-pyrrolo[2,3-d]pyrimidin-6(7H)-one] | – | > 1000 nM |

Second part, the compound after the results:

| EC50 [1] | EC50 [2] | Compound |
| --- | --- | --- |
| < 100 nM | – | COc1cc(-c2nc(N)c3c(n2)NC(=O)C3(C)c2nnc(C)o2)nn1Cc1ccccc1F (stereo not drawn) [Compound I-1, 4-amino-2-(1-(2-fluorobenzyl)-5-methoxy-1H-pyrazol-3-yl)-5-methyl-5-(5-methyl-1,3,4-oxadiazol-2-yl)-5H-pyrrolo[2,3-d]pyrimidin-6(7H)-one] |
| > 1000 nM | – | OCCn1nnc2cnc(-c3cc(-c4ccon4)n(Cc4ccccc4F)n3)nc21 [Compound I-2] |
| > 1000 nM | – | CC1(C)C(=O)N(CCO)c2nc(-c3cc(-c4ccon4)n(Cc4ccccc4F)n3)nnc21 [Compound I-4] |
| 100 to 1000 nM | – | COC(=O)NS(=O)(=O)Nc1nc(-c2cc(-c3ccon3)n(Cc3ccccc3F)n2)nc2c1C(C)(C#N)C(=O)N2 (stereo not drawn) [Compound I-5] |
| 100 to 1000 nM | – | CC1(C)C(=O)Nc2nc(-c3cc(-c4ccon4)n(Cc4ccccc4F)n3)nc(NCCO)c21 [Compound I-6] |
| > 1000 nM | – | CC1(C(=O)NCCO)C(=O)Nc2nc(-c3cc(-c4ccon4)n(Cc4ccccc4F)n3)nc(NCCO)c21 (stereo not drawn) [Compound I-7] |
| 100 to 1000 nM | – | CC1(C)C(=O)Nc2nc(-c3cc(-c4ccon4)n(Cc4ccccc4F)n3)nc(NCC(O)(C(N)=O)C(F)(F)F)c21 (stereo not drawn) [Compound I-8] |
| 100 to 1000 nM | – | CCOC(=O)C1(C)C(=O)Nc2nc(-c3ccn(Cc4ccccc4F)n3)nc(N)c21 (stereo not drawn) [Compound I-13, ethyl 4-amino-2-(1-(2-fluorobenzyl)-1H-pyrazol-3-yl)-5-methyl-6-oxo-6,7-dihydro-5H-pyrrolo[2,3-d]pyrimidine-5-carboxylate] |
| > 1000 nM | – | CC1(C(=O)NC2CC2)C(=O)Nc2nc(-c3ccn(Cc4ccccc4F)n3)nc(N)c21 (stereo not drawn) [Compound I-14, 4-amino-N-cyclopropyl-2-(1-(2-fluorobenzyl)-1H-pyrazol-3-yl)-5-methyl-6-oxo-6,7-dihydro-5H-pyrrolo[2,3-d]pyrimidine-5-carboxamide] |
| > 1000 nM | – | Fc1ccccc1Cn1nc(-c2ncc3[nH]nnc3n2)cc1-c1ccon1 [Compound I-15] |
| > 1000 nM | – | CC1(C(N)=O)C(=O)Nc2nc(-c3cc(-c4ccon4)n(Cc4ccccc4F)n3)ncc21 (stereo not drawn) [Compound I-16] |
| 100 to 1000 nM | – | CCOC(=O)C1(C)C(=O)Nc2nc(-c3cc(-c4ccon4)n(Cc4ccccc4F)n3)nc(Br)c21 (stereo not drawn) [Compound I-17] |
| 100 to 1000 nM | – | CCOC(=O)C1(C)C(=O)Nc2nc(-c3cc(-c4ccon4)n(Cc4ccccc4F)n3)ncc21 (stereo not drawn) [Compound I-18] |
| < 100 nM | – | CCOC(=O)C1(C)C(=O)Nc2nc(-c3cc(C(C)=O)n(Cc4ccccc4F)n3)nc(N)c21 (stereo not drawn) [Compound I-19] |
| 100 to 1000 nM | – | CC(=O)c1cc(-c2nc(N)c3c(n2)NC(=O)C3(C)C(N)=O)nn1Cc1ccccc1F (stereo not drawn) [Compound I-20] |
| > 1000 nM | – | CCOC(=O)C1(C)C(=O)Nc2nc(-c3cc(COC)n(Cc4ccccc4F)n3)nc(N)c21 (stereo not drawn) [Compound I-21] |
